Experimental data from patent publication US11912682B2, “Isoindolinone compounds” (Monte Rosa Therapeutics, Inc., priority 2021, dated 2024).

target: GSPT1 (Homo sapiens (Human), UniProt P15170+Q96SW2); test: immunofluorescence assay for GSPT1 degradation in CAL-51 cells (Example 10); assay type: cell-based; settings: CAL-51 cells, 6 h; read-out: IF Class (GSPT1 degradation DC50)
Method: The representative compounds were tested in an immunofluorescence assay for their activity to degrade GSPT1. […] Compounds were stored at 10 mM DMSO stocks. […] Cells were subsequently rinsed with PBS and fixed in 10% Formalin solution (50 μl, Sigma HT5011)) for 20 mins at room temperature. […] Following three further PBS washes, 50 μL blocking buffer (1% BSA, Sigma A4503, in PBS) was added for 45 min for signal-to noise reduction. Primary antibody (human GSPT1, Sigma HPA052488) was diluted in blocking buffer (dil.1/300, 35 μL/well) and incubated with the cells overnight at 4° C. […] After three final PBS washes, samples were conserved in 100 μL PBS in the dark, until measurement. Image acquisition was performed on the Operetta High-Content Imager (Perkin-Elmer). […] For the determination of GSPT1 DC50 values, a custom algorithm implemented in the PerkinElmer image analysis software Harmony-Acapella® was developed. After user-defined setting of adjustment parameters, the analysis was run identically without human intervention for all image fields. DAPI staining of the nuclei was used to determine the location of cells using standard nuclei detection modules. Segmentation artifacts were removed by threshold-based filters for area, roundness and intensity. The outline of the cells was determined analogously from the sum of the normalized, smoothed DAPI and Actin channel, starting from each nucleus. […] GSPT1 degradation (DC50) was calculated after normalization to controls and data import in CDD vault Database, using non-linear regression.

Chain of GSPT1 (P15170 whole entry): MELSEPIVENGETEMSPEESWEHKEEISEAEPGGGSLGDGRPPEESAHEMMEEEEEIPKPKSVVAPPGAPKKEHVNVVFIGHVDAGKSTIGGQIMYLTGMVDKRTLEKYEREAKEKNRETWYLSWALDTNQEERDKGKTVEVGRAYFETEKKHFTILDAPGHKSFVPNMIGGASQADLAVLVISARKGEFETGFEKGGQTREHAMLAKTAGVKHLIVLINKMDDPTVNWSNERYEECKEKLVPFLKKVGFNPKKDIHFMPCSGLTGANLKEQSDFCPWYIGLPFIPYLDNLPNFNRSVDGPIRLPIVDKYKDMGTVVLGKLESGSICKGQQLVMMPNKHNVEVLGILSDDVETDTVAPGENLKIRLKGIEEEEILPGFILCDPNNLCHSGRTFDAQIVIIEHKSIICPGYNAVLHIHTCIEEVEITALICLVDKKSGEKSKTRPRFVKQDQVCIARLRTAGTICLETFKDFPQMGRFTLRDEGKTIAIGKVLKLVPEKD
Chain of GSPT1 (Q96SW2 whole entry): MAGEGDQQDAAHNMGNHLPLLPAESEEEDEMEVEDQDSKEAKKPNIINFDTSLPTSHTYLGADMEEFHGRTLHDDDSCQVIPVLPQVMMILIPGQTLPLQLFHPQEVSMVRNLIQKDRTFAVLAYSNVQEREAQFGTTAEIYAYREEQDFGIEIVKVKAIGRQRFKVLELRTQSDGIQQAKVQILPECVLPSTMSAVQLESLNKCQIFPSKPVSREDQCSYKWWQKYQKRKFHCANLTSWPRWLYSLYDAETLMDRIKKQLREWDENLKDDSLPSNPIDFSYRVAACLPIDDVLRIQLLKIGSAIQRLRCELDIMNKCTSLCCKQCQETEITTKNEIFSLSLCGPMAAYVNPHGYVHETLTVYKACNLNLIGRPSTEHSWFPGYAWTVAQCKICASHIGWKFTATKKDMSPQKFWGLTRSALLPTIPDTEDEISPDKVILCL
Chain of GSPT1 (Q16531 2-1140 partner): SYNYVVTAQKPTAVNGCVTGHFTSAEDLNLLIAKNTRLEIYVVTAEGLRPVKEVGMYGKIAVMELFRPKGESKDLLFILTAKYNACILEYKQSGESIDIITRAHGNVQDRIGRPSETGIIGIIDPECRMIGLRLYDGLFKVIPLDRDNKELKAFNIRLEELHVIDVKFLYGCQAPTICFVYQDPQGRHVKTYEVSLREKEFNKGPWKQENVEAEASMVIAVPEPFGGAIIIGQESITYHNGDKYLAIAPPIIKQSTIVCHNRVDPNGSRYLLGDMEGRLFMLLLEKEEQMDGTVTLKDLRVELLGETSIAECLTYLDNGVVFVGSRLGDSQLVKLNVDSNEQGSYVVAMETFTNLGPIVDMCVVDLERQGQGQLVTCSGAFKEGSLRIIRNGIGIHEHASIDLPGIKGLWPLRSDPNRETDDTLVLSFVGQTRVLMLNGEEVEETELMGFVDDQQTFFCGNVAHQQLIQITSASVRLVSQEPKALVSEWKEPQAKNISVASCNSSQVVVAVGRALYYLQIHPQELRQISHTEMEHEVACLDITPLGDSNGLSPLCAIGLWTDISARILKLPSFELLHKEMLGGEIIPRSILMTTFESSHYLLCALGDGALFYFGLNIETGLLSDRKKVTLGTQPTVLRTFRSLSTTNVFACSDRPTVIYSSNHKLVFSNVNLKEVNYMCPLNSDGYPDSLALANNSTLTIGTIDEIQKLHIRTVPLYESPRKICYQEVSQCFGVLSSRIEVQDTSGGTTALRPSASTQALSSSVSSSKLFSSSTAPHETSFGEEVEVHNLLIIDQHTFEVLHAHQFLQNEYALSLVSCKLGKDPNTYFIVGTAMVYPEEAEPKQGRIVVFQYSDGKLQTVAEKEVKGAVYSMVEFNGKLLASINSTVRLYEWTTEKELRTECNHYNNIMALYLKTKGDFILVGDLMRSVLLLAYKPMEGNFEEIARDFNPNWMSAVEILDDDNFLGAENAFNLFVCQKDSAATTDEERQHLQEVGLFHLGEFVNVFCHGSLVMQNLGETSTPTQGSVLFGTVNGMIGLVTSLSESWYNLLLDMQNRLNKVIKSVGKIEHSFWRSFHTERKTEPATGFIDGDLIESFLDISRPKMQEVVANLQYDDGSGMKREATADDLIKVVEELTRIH

Structure (SMILES) | DC50 [nM]
Cc1cc(F)c(NC(=O)OCc2ccc3c(c2)C(=O)N(C2CCC(=O)NC2=O)C3)cc1C (centres unmarked) [Compound 208, (2-(2,6-dioxopiperidin-3-yl)-3-oxoisoindolin-5-yl)methyl (2-fluoro-4,5-dimethylphenyl)carbamate] | > 300
CC1(c2ccc(NC(=O)OCc3ccc4c(c3)C(=O)N(C3CCC(=O)NC3=O)C4)cc2F)COC1 (centres unmarked) [Compound 240, (2-(2,6-dioxopiperidin-3-yl)-3-oxoisoindolin-5-yl)methyl (3-fluoro-4-(3-methyloxetan-3-yl)phenyl)carbamate] | 30 to 300
O=C1CCC(N2Cc3ccc(COC(=O)NC45CC(N6CCCCC6)(C4)C5)cc3C2=O)C(=O)N1 (centres unmarked) [Compound 198] | > 300
CC(F)(F)c1ccc(F)c(NC(=O)OCc2ccc3c(c2)C(=O)N(C2CCC(=O)NC2=O)C3)c1 (centres unmarked) [Compound 234] | > 300
O=C1CCC(N2Cc3ccc(COC(=O)NC45CC(c6ccccc6F)(C4)C5)cc3C2=O)C(=O)N1 (centres unmarked) [Compound 174, (2-(2,6-dioxopiperidin-3-yl)-3-oxoisoindolin-5-yl)methyl (3-(2-fluorophenyl)bicyclo[1.1.1]pentan-1-yl) carbamate] | < 30
Cc1cc(F)c(NC(=O)OCc2ccc3c(c2)C(=O)N(C2CCC(=O)NC2=O)C3)cc1OC(C)C (centres unmarked) [Compound 230, (2-(2,6-dioxopiperidin-3-yl)-3-oxoisoindolin-5-yl)methyl (2-fluoro-5-isopropoxy-4-methylphenyl)carbamate] | < 30
Cc1cc(F)c(NC(=O)OCc2ccc3c(c2)C(=O)N(C2CCC(=O)NC2=O)C3)cc1OC(F)F (centres unmarked) [Compound 201, (2-(2,6-dioxopiperidin-3-yl)-3-oxoisoindolin-5-yl) methyl (5-(difluoromethoxy)-2-fluoro-4-methylphenyl)carbamate] | 30 to 300
O=C1CCC(N2Cc3ccc(COC(=O)Nc4cccc(C5CC5)c4)cc3C2=O)C(=O)N1 (centres unmarked) [Compound 216, (2-(2,6-dioxopiperidin-3-yl)-3-oxoisoindolin-5-yl)methyl (3-cyclopropylphenyl)carbamate] | < 30
CCCOc1ccc(F)c(NC(=O)OCc2ccc3c(c2)C(=O)N(C2CCC(=O)NC2=O)C3)c1 (centres unmarked) [Compound 226, (2-(2,6-dioxopiperidin-3-yl)-3-oxoisoindolin-5-yl)methyl (2-fluoro-5-propoxyphenyl)carbamate] | 30 to 300
O=C1CCC(N2Cc3ccc(COC(=O)Nc4cccc5c4OCC5)cc3C2=O)C(=O)N1 (centres unmarked) [Compound 173] | > 300
CC(C)(C)c1ccc(F)c(NC(=O)OCc2ccc3c(c2)C(=O)N(C2CCC(=O)NC2=O)C3)c1 (centres unmarked) [Compound 235] | 30 to 300
Cc1cc(F)c(NC(=O)OCc2ccc3c(c2)C(=O)N(C2CCC(=O)NC2=O)C3)c(F)c1 (centres unmarked) [Compound 166, (2-(2,6-dioxopiperidin-3-yl)-3-oxoisoindolin-5-yl)methyl (2,6-difluoro-4-methylphenyl)carbamate] | > 300
CC(C)(C)[C@H]1C[C@@H](NC(=O)OCc2ccc3c(c2)C(=O)N(C2CCC(=O)NC2=O)C3)C1 (stereo partly drawn) [Compound 184, cis-(2-(2,6-dioxopiperidin-3-yl)-3-oxoisoindolin-5-yl)methyl ((1s,3s)-3-(tert-butyl)cyclobutyl)carbamate] | > 300
COC(=O)C12CC(NC(=O)OCc3ccc4c(c3)C(=O)N(C3CCC(=O)NC3=O)C4)(C1)C2 (centres unmarked) [Compound 203, methyl 3-((((2-(2,6-dioxopiperidin-3-yl)-3-oxoisoindolin-5-yl)methoxy)carbonyl)amino)bicyclo[1.1.1]pentane-1-carboxylate] | > 300
CC(C)c1cccc(NC(=O)OCc2ccc3c(c2)C(=O)N(C2CCC(=O)NC2=O)C3)c1 (centres unmarked) [Compound 217, (2-(2,6-dioxopiperidin-3-yl)-3-oxoisoindolin-5-yl)methyl (3-isopropylphenyl)carbamate] | < 30
CC(C)Oc1ccc(F)c(NC(=O)OCc2ccc3c(c2)C(=O)N(C2CCC(=O)NC2=O)C3)c1 (centres unmarked) [Compound 221, (2-(2,6-dioxopiperidin-3-yl)-3-oxoisoindolin-5-yl)methyl (2-fluoro-5-isopropoxyphenyl)carbamate] | 30 to 300
CC1(c2ccc(NC(=O)OCc3ccc4c(c3)C(=O)N(C3CCC(=O)NC3=O)C4)cc2Cl)COC1 (centres unmarked) [Compound 236, (2-(2,6-dioxopiperidin-3-yl)-3-oxoisoindolin-5-yl)methyl (3-chloro-4-(3-methyloxetan-3-yl)phenyl)carbamate] | < 30

Structure (SMILES) | DC50 [nM]
O=C1CCC(N2Cc3ccc(COC(=O)Nc4cc(C5CC5)ccc4F)cc3C2=O)C(=O)N1 (centres unmarked) [Compound 207, (2-(2,6-dioxopiperidin-3-yl)-3-oxoisoindolin-5-yl)methyl (5-cyclopropyl-2-fluorophenyl) carbamate] | 30 to 300
O=C1CCC(N2Cc3ccc(COC(=O)Nc4ccc(C(O)C(F)(F)F)nc4)cc3C2=O)C(=O)N1 (centres unmarked) [Compound 238] | > 300
Cc1cc(F)c(NC(=O)OCc2ccc3c(c2)C(=O)N(C2CCC(=O)NC2=O)C3)c(F)c1Cl (centres unmarked) [Compound 211, (2-(2,6-dioxopiperidin-3-yl)-3-oxoisoindolin-5-yl)methyl (3-chloro-2,6-difluoro-4-methylphenyl)carbamate] | 30 to 300
O=C1CCC(N2Cc3ccc(COC(=O)NC45CC(F)(C4)C5)cc3C2=O)C(=O)N1 (centres unmarked) [Compound 190] | > 300
CCCOc1cc(NC(=O)OCc2ccc3c(c2)C(=O)N(C2CCC(=O)NC2=O)C3)c(F)cc1C (centres unmarked) [Compound 231, (2-(2,6-dioxopiperidin-3-yl)-3-oxoisoindolin-5-yl)methyl (2-fluoro-4-methyl-5-propoxyphenyl)carbamate] | < 30
C[C@@H]1CCCN1c1ccc(NC(=O)OCc2ccc3c(c2)C(=O)N(C2CCC(=O)NC2=O)C3)nc1 (some centres unmarked) [Compound 192] | 30 to 300
COc1cc(NC(=O)OCc2ccc3c(c2)C(=O)N(C2CCC(=O)NC2=O)C3)c(F)cc1C (centres unmarked) [Compound 229, (2-(2,6-dioxopiperidin-3-yl)-3-oxoisoindolin-5-yl)methyl (2-fluoro-5-methoxy-4-methylphenyl)carbamate] | 30 to 300
CCOc1cc(NC(=O)OCc2ccc3c(c2)C(=O)N(C2CCC(=O)NC2=O)C3)c(F)cc1C (centres unmarked) [Compound 228] | < 30
Cc1ccc(NC(=O)OCc2ccc3c(c2)C(=O)N(C2CCC(=O)NC2=O)C3)c(F)c1Cl (centres unmarked) [Compound 179, (2-(2,6-dioxopiperidin-3-yl)-3-oxoisoindolin-5-yl) methyl (3-chloro-2-fluoro-4-methylphenyl)carbamate] | < 30
CC(C)(C)[C@H]1C[C@H](NC(=O)OCc2ccc3c(c2)C(=O)N(C2CCC(=O)NC2=O)C3)C1 (stereo partly drawn) [Compound 185, trans-(2-(2,6-dioxopiperidin-3-yl)-3-oxoisoindolin-5-yl)methyl ((1s,3s)-3-(tert-butyl)cyclobutyl)carbamate] | > 300
CCOc1ccc(F)c(NC(=O)OCc2ccc3c(c2)C(=O)N(C2CCC(=O)NC2=O)C3)c1 (centres unmarked) [Compound 223, (2-(2,6-dioxopiperidin-3-yl)-3-oxoisoindolin-5-yl)methyl (5-ethoxy-2-fluorophenyl)carbamate] | > 300
O=C1CCC(N2Cc3ccc(COC(=O)Nc4cc(OC(F)F)c(F)cn4)cc3C2=O)C(=O)N1 (centres unmarked) [Compound 227, (2-(2,6-dioxopiperidin-3-yl)-3-oxoisoindolin-5-yl)methyl (4-(difluoromethoxy)-5-fluoropyridin-2-yl)carbamate] | > 300
O=C1CCC(N2Cc3ccc(COC(=O)Nc4cc(Cl)ccc4F)cc3C2=O)C(=O)N1 (centres unmarked) [Compound 163, (2-(2,6-dioxopiperidin-3-yl)-3-oxoisoindolin-5-yl)methyl (5-chloro-2-fluorophenyl)carbamate] | > 300
CC(C)(C)c1cccc(NC(=O)OCc2ccc3c(c2)C(=O)N(C2CCC(=O)NC2=O)C3)n1 (centres unmarked) [Compound 170, (2-(2,6-dioxopiperidin-3-yl)-3-oxoisoindolin-5-yl)methyl (6-(tert-butyl)pyridin-2-yl)carbamate] | 30 to 300
CC(C)(O)c1ccc(NC(=O)OCc2ccc3c(c2)C(=O)N(C2CCC(=O)NC2=O)C3)cn1 (centres unmarked) [Compound 199, (2-(2,6-dioxopiperidin-3-yl)-3-oxoisoindolin-5-yl)methyl (6-(2-hydroxypropan-2-yl)pyridin-3-yl)carbamate] | > 300
O=C1CCC(N2Cc3ccc(COC(=O)NC45C6C7C4C4C5C6C74c4ccccc4)cc3C2=O)C(=O)N1 (centres unmarked) [Compound 225, (2-(2,6-dioxopiperidin-3-yl)-3-oxoisoindolin-5-yl)methyl (4-phenylcuban-1-yl)carbamate] | > 300
O=C1CCC(N2Cc3ccc(COC(=O)Nc4cc(F)c(OC(F)F)c(F)c4)cc3C2=O)C(=O)N1 (centres unmarked) [Compound 206, (2-(2,6-dioxopiperidin-3-yl)-3-oxoisoindolin-5-yl) methyl (4-(difluoromethoxy)-3,5-difluorophenyl)carbamate] | 30 to 300

same assay, conditions: read-out: IF Class (GSPT1 degradation DC50)

Structure (SMILES) | DC50 [nM]
Cc1cc(NC(=O)OCc2ccc3c(c2)C(=O)N(C2CCC(=O)NC2=O)C3)cc(Cl)c1C#N (centres unmarked) [Compound 177, (2-(2,6-diox opiperidin-3-yl)-3-oxoisoindolin-5-yl)methyl(3-chloro-4-cyano-5-methylphenyl)carbamate] | 30 to 300
